Laboratory results taken from patent US9682930B2, “Rheumatoid arthritis treatment” (Avexxin AS, priority 2011, dated 2017).
“Also recorded” adds a separate entry of the source. Values belong to the molecule of their own block, whether it stands above or below them.

Columns and labels:
[1] = tested on: arachidonic acid (AA) release in SW982 cells; assay: TNF-induced arachidonic acid (AA) release in SW982 cells; assay type: cell-based
Protocol: (§1) The Cell Culture SW982 model cell line at a confluent or spheroid state (Wada Y, 2005) was used since gene expression and generation of proinflammatory cytokines resemble RA-derived synovial fibroblast-like cells.
(§2) For stimulation experiments 0.5 mL of a cell suspension (5-7×10^5 cells/mL) were seeded inside the inner wells of 48-well plates. The outer wells were filled with 0.5 mL PBS. For nearly confluent populations, cells were incubated for one day (37° C., 5% CO2). In order to yield post-confluent cells, plates were left in the incubator for 3 days. After this incubation time, 300 μL of the supernatant was removed and replaced by 50 μL of stimulation medium.
(§3) Inhibition was performed in a similar manner as the stimulation. After seeding, incubation and replacement of the medium by 200 μL 0.5% FBS in DMEM, 50 μL of the particular inhibitor solution was added (Table 1). After 2 hours at 37° C., 50 μL of the supernatant was removed and replaced by the three stimulants described above.
We evaluted inhibition in SW982 cells by analyzing arachidonic acid (AA) release in response to TNF with or without inhibitor pre-treatment. […] The inhibitory effect of Compound 2 was compared to that of ATK and SB203580 (FIG. 1b).

[2] = tested on: PGE2 production in SW982 cells; assay: TNF induced PGE2 production in SW982 cells (EIA/ELISA); assay type: cell-based; conditions: for Fold change 1 (PGE2) / Fold change 2 (PGE2) / Mean fold change (PGE2): relative to Ctrl
Protocol: PGE2 production was monitored by ELISA. Those cells receiving treatment underwent reincubation (prior to stimulation) with either Compound 1 (AVX001) or Compound 2 (AVX002) for 2 hours.
FIGS. 3A and 3B show the determination of IC50 values for Compound 1 and Compound 2 inhibition of TNF induced PGE2 production in SW982 cells. […] corresponds to the PGE2 level induced with TNFα in combination with ethanol after incubation for 24 hours.
as §1, §2, §3
Samples and controls were slowly thawed and diluted (between 1:1 and 1:2500) in the standard diluent. The maximal dilution was 1:10 for one step. That is why several intermediate dilutions were prepared. In the beginning all values were determined from duplicates. After having minimized technical errors, samples were only analyzed as individuals. All further steps, except for some minor corrections, were performed according to the manufacturer's recommendations as can be found in the manual of the EIA kit. In order to optimize the results, the incubation time of the alkaline phosphatase substrate was prolonged by 15 minutes. During the incubation, the plates were kept in the dark. An example of the arrangements of the samples and controls is illustrated in the appendix. The read-out was carried out with a Multiscan plate reader (Ascent Labsystems) at wavelengths of 414 and 595 nm after 10 seconds shaking at 120 rpm. The corresponding software to obtain the data was the Ascent software for Multiscan, Version 2.4.1.
SW982 cells were stimulated with TNF for various lengths ranging from 12-48 hours.

[3] = tested on: ESE-1 mRNA expression in SW982 cells; assay: TNF-induced ESE-1 mRNA expression in postconfluent SW982 cells; assay type: cell-based; conditions: 2 hours preincubation, 6 hours 10 ng/ml TNF
Protocol: The cells were starved in 0% FCS-DMEM overnight before experimental treatment consisting of 2 hours preincubation of inhibitors followed by 6 hours stimulation with 10 ng/ml TNF
As a control, the NF-kB inhibitor BAY-7082 is included.

[4] = tested on: IL-8 expression in SW982 cells; assay: Quantitative RT-PCR of IL-8 expression in TNF stimulated SW982 cells; assay type: cell-based; conditions: TNF 24 hrs
Protocol: (§4) The expression of COX2, MMP and IL-8, both known to be central in inflammation and/or joint destruction was evaluated by quantiative RT-PCR. SW 982 cells were seeded at a density of 0.1×10^6 cells/well in a 6-well format and then serum-starved after reaching 2-days post confluency. Cells were preincubated with or without inhibitors for 2 hrs prior to treatment in absence or presence of TNF for 24 hrs. The fold-difference in expression of target inflammatory genes relative to an endogenous control (GAPDH) was determined using ΔΔCt method (ΔΔCt=Cttarget−CtGAPDHt)treated−(Cttarget−CtGAPDH)untreated. Mean±SD of 3 separate experiments.

[5] = tested on: COX2 expression in SW982 cells; assay: Quantitative RT-PCR of COX2 expression in TNF stimulated SW982 cells; assay type: cell-based; conditions: TNF 24 hrs
Protocol: as §4

[6] = tested on: MMP3 expression in SW982 cells; assay: Quantitative RT-PCR of MMP expression in TNF stimulated SW982 cells; assay type: cell-based; conditions: 2 hrs preincubation, TNF 24 hrs
Protocol: as §4

[7] = tested on: collagen-induced arthritis; assay: Mouse model of collagen-induced arthritis (CIA), arthritis index; assay type: in vivo, male DBA/1 mice; conditions: CIA mice, treatment from Day 28 for 14 days, FIG. 7
Protocol: CIA was induced in male DBA/1 mice (except naive group) by immunization with 0.1 mL emulsion containing an equal volume of bovine collagen solution (2 mg/mL) and Freund's Complete Adjuvant antigen solution at the tail base. The first injection was given on Day 0 and the second injection as booster was given on Day 21. Treatment was started on Day 28 and continued for 14 days.

[8] = SW982 cells, 2 hrs preincubation, n = 3
[9] = relative to GAPDH, ΔΔCt, n = 3, mean +/- SD

IC50 ([1]; TNF 10 ng/ml, inhibitor pre-treatment, read-out: IC50 for reduction of TNF-induced release of AA): ~1 µM | IC50 ([2]; SW982 cells, FIG. 3, read-out: IC50 for inhibition of TNF induced PGE2 production): ~0.43 µM | Average fold induction of IL-8 transcript, Compound 2/TNF [4, 9]: 39.21 +/− 10.76 | Average fold induction of COX2 transcript, Compound 2/TNF [5, 9]: 5.40 +/− 4.32
SMILES: CC/C=C\C/C=C\C/C=C\C/C=C\C/C=C\CCSCC(=O)C(F)(F)F [Compound 2]
Effect on AA release ([1]; TNF-induced): normalizes AA-release to basal level | % Inhibition (PGE2) ([2]; 5 uM inhibitor + TNF): 107.3% | Mean PGE2 ([2]; 5 uM inhibitor + TNF): 87.5 | Fold change 1 (PGE2) ([2]; 5 uM inhibitor + TNF): 0.64 | Fold change 2 (PGE2) ([2]; 5 uM inhibitor + TNF): 0.30 | Mean fold change (PGE2) ([2]; 5 uM inhibitor + TNF): 0.47 | % Inhibition (PGE2) ([2]; 10 uM inhibitor + TNF): 103.7% | Mean PGE2 ([2]; 10 uM inhibitor + TNF): 147.5 | Fold change 1 (PGE2) ([2]; 10 uM inhibitor + TNF): 1.34 | Fold change 2 (PGE2) ([2]; 10 uM inhibitor + TNF): 0.38 | Mean fold change (PGE2) ([2]; 10 uM inhibitor + TNF): 0.86 | Effect on PGE2 production in response to TNF stimulation ([2]; SW982 cells): reduced PGE2 production to basal levels | Regulation of TNF-induced ESE-1 expression [3]: in a dose dependent manner; also recorded: similar, if not better, regulation of ESE-1 expression than the known NF-kB inhibitor BAY-7082 | % Inhibition of induction of IL-8 message [4, 8]: 53.49% | % Inhibition of induction of COX2 message [5, 8]: 42.22% | % Inhibition of induction of MMP3 message [6]: ~58% | Reduction of arthritis index (AI) [7]: More Effective than ENBREL® (Etanercept) in Reducing an Arthritis Index

SMILES: COc1ccc2c(c1)c(CC(=O)O)c(C)n2C(=O)c1ccc(Cl)cc1 [indomethasin, reference compound]
Regulation of TNF-induced ESE-1 expression [3]: poorer regulation of TNF induced ESE-1 expression than the control

SMILES: C[S+]([O-])c1ccc(-c2nc(-c3ccncc3)c(-c3ccc(F)cc3)[nH]2)cc1 (centres unmarked) [SB203580, reference compound]
Mean PGE2 ([2]; 10 uM inhibitor + TNF): 25.6 | Fold change 1 (PGE2) ([2]; 10 uM inhibitor + TNF): 0.18 | Fold change 2 (PGE2) ([2]; 10 uM inhibitor + TNF): 0.09 | Mean fold change (PGE2) ([2]; 10 uM inhibitor + TNF): 0.14 | inhibition at 10 µM ([2]; Homo sapiens, SW982, 10 uM inhibitor + TNF): 111% | Effect on PGE2 production in response to TNF stimulation ([2]; SW982 cells): depleted PGE2 levels to below basal release

SMILES: CCCCC/C=C\C/C=C\C/C=C\C/C=C\CCCC(=O)C(F)(F)F [ATK, reference compound]
Effect on PGE2 production in response to TNF stimulation ([2]; SW982 cells): reduced PGE2 production to basal levels
